In patent US8139339B2, “Modulation of neuromuscular functions with ultrashort electrical pulses” (Old Dominion University Research Foundation, priority 2007, dated 2012):
Read-outs that look alike come from different tables or passages of the source.

Assays:
hippocampal CA1 neurons = settings: cited from earlier work
liver cells = settings: oxidative stress-activated NSCCs; cited from earlier work
[1] = tested on: nsPEF-opened conductance pores; test: whole-cell patch clamp of membrane conductance/resistance after nsPEF exposure; type: cell-based; settings: for condition of nsPEF-exposed cells: added prior to exposure to 1 or 5 pulses
Text: Patch clamp recording: Cells on a cover slip were transferred into a glass-bottomed chamber (Warner Instruments, Hamden, Conn.) mounted on a motorized stage (Prior Scientific Inc., Rockland, Mass.) of an IX71 FluoView™ 300 confocal laser scanning microscope. Recording pipettes were pulled from 1B150F-4 glass (World Precision Instruments, Sarasota, Fla.) to a tip resistance of 1.5-3 MOhm and moved into a position with a model 6500 hydraulic micromanipulator (Siskiyou, Grants Pass, Oreg.). Electrophysiology data were acquired using a Multiclamp 700B amplifier, Digidata 1322A A-D converter, and pCLAMP 10 software (Molecular Devices, Foster City, Calif.). The analog signal was low-pass filtered at 2 or 5 kHz, and digitized at “oversampling” rates of 10 to 50 kHz. The series resistance was not compensated. Typical values of the seal and access resistance were 4-15 GOhm and 4-10 MOhm, respectively, except for a solution pair HEPES/Cl. […] The data from these experiments were analyzed differently (see below).
As shown in the inventors preliminary experiments, nsPEF exposure could be damaging to the gigaohmic seal between the cell membrane and the glass pipette, thereby effectively destroying the patch-clamp recording configuration. […] The exposure of intact (rather than already “patched”) cells effectively removed any concerns about possible artifacts caused by the presence of the glass pipette during the exposure.
Once the whole-cell configuration was formed, the membrane resistance and capacitance (Rm and Cm) were measured using the Membrane Test utility of pClamp10 software. The holding level was set at −70 or −60 mV; 10- or 20-mV test pulses were applied at 30- to 100-Hz rates and averaged on-line (n=6-12). The membrane potential (MP) was measured by switching briefly from voltage to current clamp mode at I=0.
After Cm compensation, the holding membrane potential was set to −70 mV. In most experiments, the I-V relationship was obtained by applying voltage ramps, typically from −100 to +100 mV within 20-40 ms, and preceded by a brief step to −100 mV. Passive Gm was determined as the slope of the I-V curve by a best fit linear approximation through a region that contained no visible voltage-gated currents, usually from −80 to −50 mV. As one would expect, these Gm values correlated very closely with the inverse of Rm values measured using the Membrane Test. Erev was determined in a usual manner, as an intercept of the best fit line with abscissa.
Exposure to nsPEF and local E-field modeling: A Blumlein line pulse generator (Kolb, J. F., S. Kono, and K. H. Schoenbach. 2006. Nanosecond pulsed electric field generators for the study of subcellular effects. Bioelectromagnetics 27:172-187) produced nearly rectangular 60-ns pulses that were delivered to the selected cell by a pair of tungsten electrodes (0.125 mm electrode diameter, 0.31 mm gap between the electrodes). With a help of a micromanipulator, the electrodes were positioned 5-10 μm above the surface of the cover slip on the sides of the selected cell; the cell was in the middle of the gap between the electrodes, at a distance of about 50-100 μm from their tips.
To check if activation of endogenous NSCCs was responsible (at least in part) for observed nsPEF effects, an attempt was made by the inventors to modify these effects with ruthenium red and with lanthanide ions. It should be noted, however, that these substances are not truly specific and can affects various other channels and intracellular processes.
Ruthenium red was added to the bath solution of the K/Na pair (see Table 1) at 10, 50, or 200 μM prior to exposure to 1 or 5 pulses, and the whole-cell currents were recorded after the exposure in the usual manner.

| Structure (SMILES) | swelling and other deleterious effects of oxygen-glucose deprivation (hippocampal CA1 neurons; 100 μM) | number of necrotic cells (liver cells) | protective effect against nsPEF permeabilization ([1]; 0.2 mM, initial trials) | swelling and other deleterious effects of oxygen-glucose deprivation (hippocampal CA1 neurons; 1 μM) | effect on membrane conductance increase by nsPEF ([1]; 10 μM in bath of K/Na pair, added prior to exposure) | effect on control (sham-exposed) cells ([1]; 50 μM in bath of K/Na pair) | condition of nsPEF-exposed cells ([1]; 50 μM in bath of K/Na pair) | effect on control (sham-exposed) cells ([1]; 200 μM in bath of K/Na pair) | condition of nsPEF-exposed cells ([1]; 200 μM in bath of K/Na pair) |
| --- | --- | --- | --- | --- | --- | --- | --- | --- | --- |
| [Cl][Gd]([Cl])[Cl] [Gd^3+, GdCl3] | reduced swelling | sharply decreased | no protection | – | – | – | – | – | – |
| [Cl][La]([Cl])[Cl] [La^3+, LaCl3] | reduced swelling | – | – | – | – | – | – | – | – |
| N.N.N.N.N.N.N.N.N.N.N.N.N.N.[Cl-].[Cl-].[Cl-].[Cl-].[Cl-].[Cl-].[O-2].[O-2].[Ru+3].[Ru+3].[Ru+4] [ruthenium red] | – | – | – | reduced swelling | neither enhanced nor inhibited | no apparent effect | worsened the condition of nsPEF-exposed cells | no apparent effect | worsened the condition of nsPEF-exposed cells |
